What was measured:
bacterial = experiment: In vitro bacterial mutagenicity (Ames) test
spermatozoa = conditions: mice; cited from earlier work
[1] = system: septic shock and post-cardiotomy vasodilatory shock; conditions: seven studies in septic shock and eight studies in post-cardiotomy vasodilatory shock; cited from earlier work

Which “bacterial mutagenicity (Ames) test result” value (bacterial) does the source give for `NC(=O)CC[C@@H]1NC(=O)[C@H](Cc2ccccc2)NC(=O)[C@H](Cc2ccc(O)cc2)NC(=O)[C@@H](N)CSSC[C@@H](C(=O)N2CCC[C@H]2C(=O)N[C@@H](CCCN=C(N)N)C(=O)NCC(N)=O)NC(=O)[C@H](CC(N)=O)NC1=O` [Vasopressin, Cyclo (1-6) L-Cysteinyl-L-Tyrosyl-L-Phenylalanyl-L-Glutaminyl-L-Asparaginyl-L-Cysteinyl-L-Prolyl-L-Arginyl-L-Glycinamide] here?
The value was “negative”.

And the effect on spermatozoa (spermatozoa)?
The effect on spermatozoa was “can have an effect on function and fertilizing ability of spermatozoa”.

And the “systolic and mean blood pressure following administration” value [1]?
Its value is “Increases in systolic and mean blood pressure”.
